For data set [1], the system named is HepG2 de novo lipogenic (DNL) steatosis model. More on the design: method as in PMID 37674987. The note with it: cited from earlier work.
In data set [2] the target is T1, PKL (Homo sapiens, UniProt P30613).
T1 construct: HepG2 KO cells were lysed and protein lysated with CelLytic M; host or cells: HepG2 PKM CRISPR KO cells
The data set is described as follows: Pyruvate kinase activity kinetic assay on HepG2 KO (PKL only) cell protein lysate. The format is biochemical. The note with it: read-out: IC50 of PKL enzymatic activity inhibition.

The target in data set [3] is T1, PKL. Described as above. The format is biochemical. The protocol:
(§1) HepG2 KO cells were lysed and protein lysated with CelLytic M (C2978, Sigma-Aldrich, St. Louis, MO, USA) lysis buffer. The effect of 10 µM compounds on pyruvate kinase activity on protein lysate was measured with the Pyruvate Kinase Assay Kit (ab83432, Abcam, Cambridge, UK), followed by the manufacturer’s instructions. 2 × 10^4 HepG2 WT cells and 1 × 10^5 HepG2 KO cells were seeded into 96-well plates for a pyruvate kinase activity assay on cells. Drugs were treated at 20 µM concentration on the cell for 4 h and washed with 250 µL of PBS. Cells were lysed with 50 µL PK assay buffer (ab83432, Abcam) and started reaction and kinetic O.D measurement with 50 µL PK assay buffer that contained the assay component (ab83432, Abcam). O.D. values were measured with a microplate reader (Hidex Sense Beta Plus, Turku, Finland) at 570 nm wavelength.

The next data set concerns the target T2, PKL in HepG2 KO cells (Homo sapiens, UniProt P30613).
T2 construct: host or cells: HepG2 PKM CRISPR KO cells
Briefly: Pyruvate kinase activity assay on compound-treated HepG2 KO cells (whole-cell assay). The format is cell-based. The protocol: as §1

For data set [4], the system named is PKL. More on the design: method as in PMID 36753880. The note with it: 10 μM in liver cell lysate; cited from earlier work.
The subject of data set [5] is PKL. The note with it: Figure 2, background data; cited from earlier work.
The test system of another data set is FASN. The data set is described as follows: Western blot of DNL pathway proteins in HepG2 steatosis model, FASN. The format is cell-based, human. The note with it: 5 µM, one week. As to the method: (§2) After steatosis induction with a designated concentration of compounds, whole cell lysate was prepared with CelLytic M (C2978, Sigma-Aldrich) buffer. SDS PAGE was performed using Mini-PROTEAN® TGX™ Precast Gels (Bio-Rad, Hercules, CA, USA) and transferred using the Trans-Blot® Turbo™ Transfer System (Bio-Rad). FASN (ab22759, Abcam), ChREBP (92809, Abcam), PKL (06653, Sigma), PKM (4053S, Cell Signaling Technology, Danvers, MA, USA), β-actin (ab8227, Abcam), and GAPDH (sc-47724, Santa Cruz Biotechnology, Inc., Dallas, TX, USA) were blotted as primary antibodies overnight. Secondary antibodies, Goat Anti-Rabbit HRP (ab205718, Abcam) and goat anti-mouse IgG-HRP (sc2005, Santa Cruz Biotechnology, Inc.), were blotted for one hour. The protein band was detected with ImageQuantTMLAS 500 (29-0050-63, GE Healthcare Bio-Sciences AB, Uppsala, Sweden).
On the technique in general: Immunoblotting shows a protein as a band on a membrane.

Data set [6] relates to PKM. Briefly: Western blot of DNL pathway proteins in HepG2 steatosis model, PKM. The format is cell-based, human. The note with it: 5 µM, one week. The protocol:
as §2

Data set [7] concerns the target T3, PKM (Homo sapiens, UniProt P14618).
T3 construct: HepG2 WT cells were trypsinized and transferred into a 1.5 mL tube; host or cells: HepG2 WT cells
Briefly: Cellular Thermal Shift Assay (CETSA), PKM. The class given is cell-based. The note with it: HepG2 WT cells, 2 h treatment, 60 °C heat shock 5 min, western blot. As to the method: (§3) HepG2 WT cells were trypsinized and transferred into a 1.5 mL tube at 500,000 cells per mL concentration. Compound 15e was treated with 10 µM and 20 µM in the 1.5 mL tube and incubated for 2 h in a 37 °C CO2 incubator. Tubes sustained heat shock at 60 °C for 5 min. with a pre-heated heat block. After centrifugation for heated cells at 13,000 rpm for 1 min, cell pellets were lysed with 50 µL of Native lysis Buffer (ab156035, Abcam). Centrifugation was again used to purify soluble proteins in a lysed solution, and the same volume (9 µL) of each group was analyzed using Western blot.

Data set [8] deals with HepG2 de novo lipogenic (DNL) steatosis model. The data set is described as follows: TAG measurement in HepG2 DNL steatosis model. The format is cell-based, human. The note with it: one week. The protocol: (§4) HepG2 wild-type cells and HepG2 PKM CRISPR KO cells were purchased from the genome engineering company Synthego (Menlo Park, CA, USA). Cells were maintained with growth media RPMI 1640 (R2405, Sigma-Aldrich) and supplemented with 10% fetal bovine serum (FBS, F7524, Sigma-Aldrich) and 1% P/S (P4333, Sigma-Aldrich). Steatosis induction media was prepared as DMEM high glucose (D0819, Sigma-Aldrich) with 10% FBS, 1% P/S media supplemented with 10 µg/mL insulin (I9278, Sigma-Aldrich), and 10 µM T0901317 (T2320, Sigma-Aldrich) for one week. HepG2 cells were seeded 6 × 10^4 cells per well into a 96-well plate for TAG and MTT assays after steatosis and 1 × 10^6 cells per well into a 6-well plate for western blot analysis after steatosis. HepG2 cells were incubated with steatosis-inducing media for one week by 3 days + 2 days + 2 days with a total of three media exchanges.
(§5) HepG2 cells were seeded at 6 × 10^4 cells per well into 96-well plates and induced steatosis for one week with a designated concentration of small molecules. After steatosis induction, cells were washed with 200 µL of PBS, and triglyceride contents were measured by the Triglyceride Assay Kit-Quantification (ab65336, Abcam) following the manufacturer’s instructions. O.D. values were detected with a microplate reader at 570 nm (Hidex Sense Beta Plus). A 5 mg/mL MTT (M2128, Sigma-Aldrich) solution in PBS (10 µL) was added to each well for the MTT assay. After 1 h, the MTT solution and all media were removed from the wells. 100 μL of DMSO was added and mixed to dissolve the formazan crystals. Cell viability was analyzed by measuring the absorbance of the dissolved formazan in a microplate reader at a wavelength of 570 nm with a microplate reader (Hidex Sense Beta Plus).

For data set [9], the target named is T1, PKL. Briefly: Cellular Thermal Shift Assay (CETSA), PKL. The format is cell-based. The note with it: HepG2 WT cells, 2 h treatment, 60 °C heat shock 5 min, western blot. The protocol:
as §3

Data set [10] relates to PKL. The data set is described as follows: Western blot of DNL pathway proteins in HepG2 steatosis model, PKL. The class given is cell-based, human. The note with it: 5 µM, one week. The protocol: as §2
Data set [11] concerns PK activity in HepG2 WT cells (PKM and PKL). Briefly: Pyruvate kinase activity assay on compound-treated HepG2 WT cells. The class given is cell-based, human. The note with it: 20 µM, 4 h. As to the method: as §1
For the next data set, the system named is ChREBP. Briefly: Western blot of DNL pathway proteins in HepG2 steatosis model, ChREBP. The format is cell-based, human. The note with it: 5 µM, one week. The protocol:
as §2

For data set [12], the system named is HepG2 de novo lipogenic (DNL) steatosis model. Briefly: MTT cell viability assay in HepG2 DNL steatosis model. The class given is cell-based, human. As to the method: as §4, with “HepG2 cells were incubated with steatosis-inducing media for one week by 3 days + 2 days + 2 days with a total of three media exchanges.” left out
as §5, with “A 5 mg/mL MTT (M2128, Sigma-Aldrich) solution in PBS (10 µL) was added to each well for the MTT assay. After 1 h, the MTT solution and all media were removed from the wells. 100 μL of DMSO was added and mixed to dissolve the formazan crystals.” left out

Structures are written as SMILES.

T1 sequence (P30613 1-543 isoform P30613-2): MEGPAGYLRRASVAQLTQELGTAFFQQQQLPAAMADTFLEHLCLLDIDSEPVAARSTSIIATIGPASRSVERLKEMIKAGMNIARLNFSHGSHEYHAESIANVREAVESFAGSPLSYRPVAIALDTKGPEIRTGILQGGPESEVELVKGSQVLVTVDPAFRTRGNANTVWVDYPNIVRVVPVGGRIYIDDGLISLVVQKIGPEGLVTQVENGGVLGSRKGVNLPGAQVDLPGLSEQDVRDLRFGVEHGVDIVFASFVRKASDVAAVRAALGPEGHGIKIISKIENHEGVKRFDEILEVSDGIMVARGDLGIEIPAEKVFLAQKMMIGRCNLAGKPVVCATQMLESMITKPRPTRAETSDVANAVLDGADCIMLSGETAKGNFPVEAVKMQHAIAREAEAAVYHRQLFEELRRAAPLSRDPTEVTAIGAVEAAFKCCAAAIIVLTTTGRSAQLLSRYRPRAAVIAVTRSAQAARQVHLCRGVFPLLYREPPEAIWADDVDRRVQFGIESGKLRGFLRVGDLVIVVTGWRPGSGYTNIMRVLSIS
T2 sequence (P30613 1-543 isoform P30613-2): as above
T3 sequence (P14618 2-531 limits assumed): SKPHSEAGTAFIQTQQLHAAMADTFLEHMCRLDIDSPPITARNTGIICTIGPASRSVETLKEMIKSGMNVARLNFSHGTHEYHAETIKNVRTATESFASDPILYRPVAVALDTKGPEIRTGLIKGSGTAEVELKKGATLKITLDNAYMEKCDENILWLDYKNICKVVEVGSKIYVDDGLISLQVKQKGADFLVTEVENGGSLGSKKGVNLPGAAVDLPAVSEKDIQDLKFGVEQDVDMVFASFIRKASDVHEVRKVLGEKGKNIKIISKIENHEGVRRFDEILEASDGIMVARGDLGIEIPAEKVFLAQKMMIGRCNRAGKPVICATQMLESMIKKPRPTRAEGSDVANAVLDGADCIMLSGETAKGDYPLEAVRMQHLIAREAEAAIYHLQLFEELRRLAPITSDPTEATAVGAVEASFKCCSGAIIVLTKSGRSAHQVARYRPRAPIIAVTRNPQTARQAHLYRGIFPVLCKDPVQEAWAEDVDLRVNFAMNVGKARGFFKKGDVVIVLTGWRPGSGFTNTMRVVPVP

As for `N#Cc1c(NC(=O)c2cccc3ccccc23)sc2c1CCCC2` [JNK-IN-5A], the “effect on TAG” value in data set [1] is recorded as “reduced TAG”.

What is called IC50 is the concentration needed to halve the response being measured. Broadly, the inhibition is the share of the control response that was lost under treatment. `O=S1(=O)c2cc(O)c(O)cc2-c2cc(O)ccc2N1Cc1ccc(F)cc1` [18a, 6-(4-fluorobenzyl)-2,3,9-trihydroxy-6H-dibenzo[c,e][1,2]thiazine 5,5-dioxide]: the IC50 at PKL [2] is 11.5 µM. The inhibition at 10 µM on PKL [3] stood at 50.8%.

On to `O=c1oc2cc(O)ccc2c2cc(O)c(O)cc12` [Urolithin C, urolithin C, reference compound], for which the IC50 on PKL [2] worked out at 4.7 µM. The “PKL inhibition in whole cells” value at PKL in HepG2 KO cells (20 µM, 4 h, HepG2 KO cells) is on record as “did not inhibit PKL activity in cells”. Further, the “inhibition of PKL” value in the data set on PKL [4] was 33%. At PKL [3], this compound registered an inhibition at 10 µM of 33%.

`O=c1oc2c(O)c(O)cc3c(=O)oc4c(O)c(O)cc1c4c23` [Ellagic acid, ellagic acid]: in the data set on PKL [5], the “inhibition on whole cell assay” value is on record as “didn't observe inhibition on whole cell assay”. In addition, in the data set on PKL [4], the “inhibition of PKL” value is recorded as 21%.

For `O=S1(=O)c2cc(O)c(O)cc2-c2cc(O)ccc2N1Cc1ccccc1` [15a, 6-benzyl-2,3,9-trihydroxy-6H-dibenzo[c,e][1,2]thiazine 5,5-dioxide], the IC50 at PKL [2] stood at 17.3 µM. At PKL [3], this compound displayed an inhibition at 10 µM of 47.6%.

`O=S(=O)(NCc1ccc(F)cc1)c1cc(O)c(O)cc1-c1ccc(O)c(O)c1` [12d, N-(4-fluorobenzyl)-3′,4,4′,5-tetrahydroxy-[1,1′-biphenyl]-2-sulfonamide]: at PKL [2], the IC50 came out at 18.7 µM. On PKL [3], this compound had an inhibition at 10 µM of 44.1%.

With `O=S1(=O)c2cc(O)c(O)cc2-c2ccc(C(F)(F)F)cc2N1Cc1ccccc1` [15e, 6-benzyl-2,3-dihydroxy-8-(trifluoromethyl)-6H-dibenzo[c,e][1,2]thiazine 5,5-dioxide], in the data set with FASN, the “reduction in expression level of FASN” value is recorded as “up to 79%”. Besides, on PKL [2], the IC50 is 10.8 µM. For the same compound, the “protein level of PKM” value in the data set with PKM [6] is on record as “remained unaffected”. Further, the “increase in PKM level (CETSA)” value at PKM [7] is 12%. Also, the TAG contents in data set [8] (0.625 µM) is 80.4% ± 3.2; in data set [8] (1.25 µM), 62.7% ± 2.9; in data set [8] (2.5 µM) it was 56.3% ± 1.9; in data set [8] (5 µM), 55.6% ± 2.4. Moreover, on PKL in HepG2 KO cells (20 µM in culture media for 4 h, HepG2 KO cells), the activity at 20 µM was determined as 67.1%. Further, the “PKL inhibition in whole cells” value on PKL in HepG2 KO cells (20 µM, 4 h, HepG2 KO cells) is “significant PKL inhibition”. The inhibition at 20 µM on PKL in HepG2 KO cells (20 µM, 4 h, HepG2 KO cells (PKL only), Figure 6a, read-out: inhibition of PK activity) is 25%. The “decrease in PKL level (CETSA)” value at PKL [9] was 38%. In addition, the “reduction in expression level of PKL” value with PKL [10] amounted to 45%. Moreover, the “activation of PK activity” value in data set [11] was 9%. At PKL [3], this compound had an inhibition at 10 µM of 42.9%. For the same compound, the “protein level of ChREBP” value with ChREBP was “remained unaffected”. In addition, in [12] (5 µM to 0.625 µM, one week), the cytotoxicity entry is listed as “did not show cytotoxicity”. The toxicity result in [12] (10 µM, one-week DNL steatosis procedure) is given as “high toxicity”.

For the compound `O=S(=O)(NCc1ccccc1)c1cc(O)c(O)cc1-c1ccc(O)c(O)c1` [9d, N-benzyl-3′,4,4′,5-tetrahydroxy-[1,1′-biphenyl]-2-sulfonamide], the IC50 on PKL [2] worked out at 4.3 µM. Further, the inhibition at 10 µM at PKL [3] is 40.9%.

By melting point is commonly meant the temperature of the solid-liquid transition. For the compound `O=S1(=O)c2cc(O)c(O)cc2-c2ccc(C(F)(F)F)cc2N1Cc1ccc(F)cc1` [18e, 6-(4-fluorobenzyl)-2,3-dihydroxy-8-(trifluoromethyl)-6H-dibenzo[c,e][1,2]thiazine 5,5-dioxide], the melting point lay in the range of 189 to 190 °C.

Regarding `O=S1(=O)c2cc(O)c(O)cc2-c2cc(O)c(O)cc2N1Cc1ccccc1` [15d, 6-benzyl-2,3,8,9-tetrahydroxy-6H-dibenzo[c,e][1,2]thiazine 5,5-dioxide], the IC50 at PKL [2] is 7.1 µM. The inhibition at 10 µM against PKL [3] came out at 29.8%.

The record behind these values is PMC11277446, “Discovery of Cell-Permeable Allosteric Inhibitors of Liver Pyruvate Kinase: Design and Synthesis of Sulfone-Based Urolithins” (International Journal of Molecular Sciences, 2024).
